Consider four compounds from patent US20260356800A1, “POLYMORPH OF PHENYL PYRROLE HYDRAZINE CARBOXIMIDAMIDE COMPOUND” (SYNACT PHARMA ApS, priority 2022, published 2026).

Data set [1] has as its system MC3R. Particulars: biased dual agonist; cited from earlier work.
The nature of data set [2]: Initial polymorphism assessment: solubility of AP1189 freebase in solvent systems (aliquot addition). It is filed as physicochemical. Particulars: ambient, gently heated to ca. 40 °C if solid remained. The method, then:
An initial polymorphism assessment was carried out in order to identify any potential alternate forms. The initial polymorphism assessment was carried out as follows: To ca. 7 mg of freebase Pattern 1 from DCM evaporation the appropriate solvent system was added in aliquots of 50 μL and if solid remained the vial was gently heated to ca. 40 °C to aid dissolution. Solvent addition was continued until the material had fully dissolved or 1 mL of the appropriate solvent system had been added (<10 mg/mL). Anti-solvent (t-BME) was added dropwise (with stirring) at ambient. If the solutions were already present as slurries prior to addition of anti-solvent, no anti-solvent was added. The experiments were temperature cycled between ambient temperature and 40 °C in 4 hour cycles for ca. 24 h with agitation. Slurries were isolated by centrifugation and solutions allowed to evaporate at ambient temperature. XRPD analysis was carried out for the solids which were obtained.

In data set [3] the test system is MC1R. Particulars: biased dual agonist; cited from earlier work.
Data set [4] relates to MC1R-induced melanogenesis. Particulars: cited from earlier work.
Data set [5] concerns Ca^2± mobilisation. Particulars: alternative pathways; cited from earlier work.
For data set [6], the system named is MC1R. Particulars: cited from earlier work.
The subject of data set [7] is cAMP generation (MC1R and MC3R). Particulars: cited from earlier work.
The nature of data set [8]: Thermodynamic solubility in buffer at 24 h (HPLC of supernatant). Particulars: for solubility at 24 h: 0.2 m hcl/kcl, as free-base. It is filed as physicochemical. The source says: The solubility of a compound may be assessed by adding a surplus of the compound to a volume of solvent such that some of the compound is not dissolved, then isolating the non-dissolved compound and measuring the amount. The solubility of a compound may alternatively be assessed by adding a surplus of the compound to a volume of solvent such that some of the compound is not dissolved, and then measure the amount of compound in solution. Measuring the amount of compound in solution may be done using any suitable method, such as HPLC, titration, or spectrometry.
The solubility of AP1189 freebase, tosylate salt and fumarate salt were assessed in buffer solutions. An amount of the compound was suspended in buffer and agitated at ambient temperature for 24 hr, before the supernatant was sampled and analysed for the content of AP1189 by HPLC.

In data set [9] the test system is ERK1/2-phosphorylation. Particulars: alternative pathways; cited from earlier work.

≈ marks a conversion by molar mass, not a printed value. Structures can show the parent of a compound that is named as a salt.

For the compound `NC(N)=N/N=C/C=C/c1cccn1-c1ccccc1[N+](=O)[O-]` [AP1189, 2-{3-[1-(2-nitrophenyl)-1H-pyrrol-2-yl]prop-2-en-1-ylidine}hydrazine-1-carboximidamide], in [1], the “agonism at MC3R” value is “biased dual agonist at receptors MC1R and MC3R”. Moreover, the solubility (as a rule, the concentration that dissolves in the medium under given conditions) in data set [2] (Water) was under 7000 µg/mL; in [2] (organic solvent or mixture, 2-Methyl THF), at least 10000 µg/mL; in [2] (organic solvent or mixture, 2-Propanol), under 7000 µg/mL; in data set [2] (organic solvent or mixture, 90% 2-Propanol: 10% Water (% v/v) (calculated aw 0.6)), at least 10000 µg/mL; in data set [2] (organic solvent or mixture, 98.5% Ethanol : 1.5% Water (% v/v) (calculated aw 0.2)) it was at least 15000 µg/mL; in data set [2] (organic solvent or mixture, Acetone) it was at least 49000 µg/mL. In addition, the solubility is at least 27000 µg/mL in [2] (organic solvent or mixture, Acetonitrile); under 7000 µg/mL in data set [2] (organic solvent or mixture, Dichloromethane); at least 136000 µg/mL in [2] (organic solvent or mixture, Dimethylsulfoxide); at least 13000 µg/mL in [2] (organic solvent or mixture, Ethanol); under 7000 µg/mL in [2] (organic solvent or mixture, Ethyl Acetate); under 7000 µg/mL in data set [2] (organic solvent or mixture, Heptane). For the same compound, the solubility in [2] (organic solvent or mixture, Methanol) was at least 142000 µg/mL; in data set [2] (organic solvent or mixture, Methylethyl Ketone) it was at least 17000 µg/mL; in data set [2] (organic solvent or mixture, Methylisobutyl Ketone) it was under 7000 µg/mL; in data set [2] (organic solvent or mixture, Tetrahydrofuran), at least 35000 µg/mL; in data set [2] (organic solvent or mixture, Toluene), under 7000 µg/mL; in data set [2] (organic solvent or mixture, tert-Butylmethyl ether), under 7000 µg/mL. Besides, in [3], the “agonism at MC1R” value is “biased dual agonist at receptors MC1R and MC3R”. In data set [4], the MC1R-induced melanogenesis entry was “no MC1R-induced melanogenesis”. Moreover, the “Ca2+ mobilisation” value in data set [5] was “appear to induce alternative pathways including ERK1/2-phosphorylation and Ca^2 mobilisation”. The “binding to MC1R” value in data set [6] was “shown to bind the MC1R”. Besides, the “canonical cAMP generation” value in data set [7] is reported as “does not provoke canonical cAMP generation”. Further, in data set [8] (acidic conditions), the “Solubility at acidic conditions (in words)” value is “highly soluble at acidic conditions”. Moreover, the “Solubility at pH 1.2 (in words)” value was “high solubility at pH 1.2” in data set [8] and “high solubility at pH 1.2 compared to the test compound AP1189 fumarate Pattern 1” in [8] (listed as AP1189 free base). Besides, in data set [9], the ERK1/2-phosphorylation result is “appear to induce alternative pathways including ERK1/2-phosphorylation”.
Compound `NC(N)=N/N=C/C=C/c1cccn1-c1ccccc1[N+](=O)[O-]` [Fumarate Salt Pattern 1] registered a solubility at 24 h in [8] (pH 1.29, 0.2 M HCl/KCl, initial pH 1.35 → 1.18, 24 h pH 1.29, input 38 mM, ambient temperature) of 10.9 mM.
In [8] (pH 1.26, 0.2 M HCl/KCl, initial pH 1.22, 24 h pH 1.26, input 31 mM, ambient temperature), `NC(N)=N/N=C/C=C/c1cccn1-c1ccccc1[N+](=O)[O-]` [Tosylate Salt Pattern 1, 2-{3-[1-(2-nitrophenyl)-1H-pyrrol-2-yl]prop-2-en-1-ylidine}hydrazine-1-carboximidamide tosylate] showed a solubility at 24 h of 0.31 mM. In data set [8] (low pH, e.g. pH 1.2-1.3 or pH 4.5), the “Solubility at low pH (in words)” value was “low solubility at low pH”.
For `NC(N)=N/N=C/C=C/c1cccn1-c1ccccc1[N+](=O)[O-]` [AP1189 freebase Pattern 1, 2-{3-[1-(2-nitrophenyl)-1H-pyrrol-2-yl]prop-2-en-1-ylidine}hydrazine-1-carboximidamide], the solubility at 24 h in data set [8] (pH 1.29, 0.2 M HCl/KCl, initial pH 2.05 → 1.24, 24 h pH 1.29, input 83* mM (estimated), ambient temperature) was over 44.1 mM; in data set [8] (pH 1.54, FaSSGF (Fasted State Simulated Gastric Fluid), initial pH 1.60, 24 h pH 1.54, ambient temperature), 13.9 mM (≈ 4140 µg/mL). In addition, the “Solubility at pH 4.5 (in words)” value in data set [8] (pH 4.5, compared to AP1189 fumarate Pattern 1) is listed as “high solubility at pH 4.5 compared to test compound AP1189 fumarate Pattern 1”.
